Measurements published in patent publication US20210290680A1, “METHODS AND COMPOSITIONS FOR MODULATING CELLULAR AGING” (Dorian Therapeutics, Inc., priority 2019, published 2021).

Legend:
[1] = test system: CD69; test: Exhaustion marker CD69 by flow cytometry; format: cell-based, human; conditions: for CD69%: day 16, n=3; for reduction of exhaustion marker CD69 expression (shCtrl vs shRNA): primary T cells, day 20
Method: Primary T cells were activated as described (Example 3), transduced with a lentivirus encoding either a shUSP16 #1, shUSP16 #2 or a non-targeting shRNA (shCtrl) and cells were selected with puromycin at day 6. At day 20, T cells were stained for CD69-Allophycocyanin (Biolegend) and T cells analyzed by MACSQuant (Miltenyi Biotec) (FIG. 19). Three primary T cell cultures were analyzed.
Primary T cells were activated as described (Example 3), transduced with a lentivirus encoding for either a CD19.CAR or a GD2.CAR co-expressing shUSP16 #1, shUSP16 #2 or a scrambled shRNA (Control). Cells were cultured in IL-2 and sorted between days 6-13 for EGFRt. At day 16, T cells were stained for exhaustion markers, including CD69.

[2] = test system: CHLA-55 cells; test: Re-challenge cytotoxicity assay, GD2.CAR T cells; format: cell-based, human; conditions: after double tumor-challenge, n=3
Method: Primary T cells were activated as described (Example 3), transduced with a lentivirus encoding for either a CD19.CAR or a GD2.CAR co-expressing shUSP16 #1, shUSP16 #2 or a scrambled shRNA (Control). Cells were cultured in IL-2 and sorted between days 6-13 for EGFRt. At day 16 cytotoxicity assays were performed. Briefly, cells were counted and 100,000 T cells (adjusted for EGFR expression) were plated at 1:5 Effector:Target (E:T) ratio. At 72 hours, the mixture of tumor cells and T cells were collected, stained for CD3-PE, CD8-BV510, CD19- or GD2-APC, EGFR-AF488 and Sytox and counted by flow cytometry (MACSQuant, Miltenyi Biotec) (FIGS. 30A and 30B). Counting beads (CountBright Absolute Counting beads, Invitrogen) were added before acquisition and absolute number was calculated as following (number of cell events/number of bead events)×(assigned bead count of the lot (beads/50 ul)/volume of sample (ul))=concentration of sample as cells/ul). NALM cells were used as target cells for CD19.CAR T cells and CHLA-55 cells were used as target for GD2.CAR T cells. Three different primary T cell cultures were tested for CD19 and GD2 CAR.
At day 16, regular cytotoxicity assays were also performed (Example 22). Three days post-antigen stimulation, CD19.CAR T cells were stained for EGFR-AF488 (R&D), CD3-PE, CD8-BV510, PD-1-Allophycocyanin and Lag-3 and CTLA4 (Biolegend) and acquired by MACSQuant (Miltenyi Biotec). The co-cultures we also re-challenged with the addition of fresh tumor cells. T cell killing and expansion upon double tumor-challenge was assessed after three days.

[3] = test system: CHLA-55 neuroblastoma cell lines; test: In vivo anti-tumor activity of GD2.CAR T cells (circulating Gaussia luciferase); conditions: immunocompromised mice, one million GD2.CAR T cells via tail vein, n=4-6
Method: Primary T cells were activated as described (Example 3), transduced with a lentivirus encoding for either a CD19.CAR or a GD2.CAR co-expressing shUSP16 #1, shUSP16 #2, or a scrambled shRNA (Control). Cells were cultured in IL-2 and sorted between days 6-13 for EGFRt. At day 15 cells were frozen down (to mimic the clinic setting) and thawed d−1 before injection in immunocompromised mice. Immunocompromised mice (NCG (NOD CRISPR Prkdc II2r Gamma) were provided by Charles River and NSG (NOD.Cg-PrkdcIL2rg<tm1Wj1>/SzJ) were purchased from Jackson Laboratory). CHLA-55 neuroblastoma cell lines were transduced with Gaussia Luciferase and one million cells were injected via tail vein at d−7 (day minus 7).
One million of GD2.CAR T cells were infused via tail vain at day 0 and mice were weighted, and blood was collected every week (FIG. 36). Tumor growth was monitor by weekly assessment of circulating luciferase. Briefly, blood was collected and subsequently analyzed for luciferase expression using Nanolight Technologies Luciferase detection Kit. Luciferase expression (calculated as GLuc, RLU (Relative Luminescence Unit)) in the blood correlates with tumor engraftment.

[4] = test system: NALM leukemia cell line; test: In vivo anti-tumor activity of CD19.CAR T cells (circulating Gaussia luciferase); conditions: immunocompromised mice, one million CD19.CAR T cells via tail vein, n=4-6
Method: Primary T cells were activated and prepared, as in Example 26. NALM leukemia cell line was transduced with Gaussia Luciferase and one million cells were injected via tail vein at d−4. One million of CD19.CAR T cells were then infused via tail vein at d=0 and mice were weighted, and blood was collected every week (FIG. 38). Tumor growth was monitor by weekly assessment of circulating luciferase. Briefly, blood was collected and subsequently analyzed for luciferase expression using Nanolight Technologies Luciferase detection Kit. Luciferase expression (calculated as GLuc, RLU (Relative Luminescence Unit)) in the blood correlates with tumor engraftment. As NALM cells engraft primarily in the spleen, at the time of sacrifice, the spleens were collected and photographed (FIG. 39B), the size of the spleen directly correlates to the amount of tumor infiltrated in the organ.

Substance | CD69% ([1]; CD19.CAR) [%] | CD69% ([1]; GD2.CAR) [%] | reduction of exhaustion marker CD69 expression (shCtrl vs shRNA) [1] [%] | CHLA-55 residual cells [2] | T cell number [2] | CHLA-55 engraftment, luciferase expression in blood (GLuc) [3] [RLU] | NALM engraftment, luciferase expression in blood (GLuc) [4] [RLU]
shUSP16 #2: shRNA targeting USP16, 5′-TATATCAGTTCACCCGTAAT-3′ (SEQ ID NO: 9), pSIH backbone or co-expressed in CAR plasmid | 27.17 | 27.8 | 40 | 330610 | 722634 | 38968 | 5169
shUSP16 #1: shRNA targeting USP16, 5′-GACTGTAAGACTGACAATAAA-3′ (SEQ ID NO: 8), pSIH backbone or co-expressed in CAR plasmid | 13.70 | 23.05 | 41 | 436500 | 404709 | 53279 | 38603
